Test [1] deals with Serine/threonine-protein kinase B-raf (Homo sapiens, UniProt P15056). Briefly: Inhibition of human recombinant B-Raf expressed in Sf9 cells assessed as inhibition of Mek1 phosphorylation.
Test [2] concerns the target RAC-alpha serine/threonine-protein kinase (Homo sapiens, UniProt P31749). Nature of the test: Inhibition of AKT.
For test [3], the target named is Serine/threonine-protein kinase mTOR (Homo sapiens, UniProt P42345). Briefly: Inhibition of mTOR.
In test [4] the target is Tyrosine-protein kinase Lyn (Homo sapiens, UniProt P07948). Briefly: Inhibition of LYN.
For test [5], the system named is HT-29. Nature of the test: Growth inhibition of human HT-29 cells. In kind it is functional, cell-based.
The target of test [6] is Mitogen-activated protein kinase kinase kinase 8 (Homo sapiens, UniProt P41279). Nature of the test: Inhibition of Tpl2.
Test [7] deals with LoVo. Nature of the test: Growth inhibition of human LoVo cells. In kind it is functional, cell-based.
For test [8], the target named is Vascular endothelial growth factor receptor 2 (Homo sapiens, UniProt P35968). Nature of the test: Inhibition of KDR.
The target in test [9] is Insulin-like growth factor 1 receptor (Homo sapiens, UniProt P08069). Briefly: Inhibition of IGFR1.
For test [10], the target named is Tyrosine-protein kinase BTK (Homo sapiens, UniProt Q06187). Nature of the test: Inhibition of BTK.
Test [11] deals with BXPC-3. Briefly: Growth inhibition of human BxPC3 cells. The class given is functional, cell-based.
In test [12] the test system is SW-620. Briefly: Growth inhibition of human SW620 cells. The class given is functional, cell-based.
In test [13] the target is Phosphatidylinositol 4,5-bisphosphate 3-kinase catalytic subunit alpha isoform (Homo sapiens, UniProt P42336). Nature of the test: Inhibition of PI3Kalpha.
Test [14] deals with Cyclin-dependent kinase 4 (Homo sapiens, UniProt P11802). Nature of the test: Inhibition of CDK4.
Test [15] concerns A-375. Briefly: Growth inhibition of human A375 cells. The class given is functional, cell-based.
In test [16] the target is Proto-oncogene tyrosine-protein kinase Src (Homo sapiens, UniProt P12931). Nature of the test: Inhibition of SRC.
For test [17], the system named is Caco-2. Nature of the test: Growth inhibition of human Caco-2 cells. In kind it is functional, cell-based.
Test [18] addresses Tyrosine-protein kinase Lck (Homo sapiens, UniProt P06239). Nature of the test: Inhibition of LCK.
Test [19] in a line: Growth inhibition of human WM266.4 cells. In kind it is functional, cell-based. The note with it: WM 266-4.

Molecules are shown by their SMILES.

Chain of Serine/threonine-protein kinase B-raf (P15056 whole entry): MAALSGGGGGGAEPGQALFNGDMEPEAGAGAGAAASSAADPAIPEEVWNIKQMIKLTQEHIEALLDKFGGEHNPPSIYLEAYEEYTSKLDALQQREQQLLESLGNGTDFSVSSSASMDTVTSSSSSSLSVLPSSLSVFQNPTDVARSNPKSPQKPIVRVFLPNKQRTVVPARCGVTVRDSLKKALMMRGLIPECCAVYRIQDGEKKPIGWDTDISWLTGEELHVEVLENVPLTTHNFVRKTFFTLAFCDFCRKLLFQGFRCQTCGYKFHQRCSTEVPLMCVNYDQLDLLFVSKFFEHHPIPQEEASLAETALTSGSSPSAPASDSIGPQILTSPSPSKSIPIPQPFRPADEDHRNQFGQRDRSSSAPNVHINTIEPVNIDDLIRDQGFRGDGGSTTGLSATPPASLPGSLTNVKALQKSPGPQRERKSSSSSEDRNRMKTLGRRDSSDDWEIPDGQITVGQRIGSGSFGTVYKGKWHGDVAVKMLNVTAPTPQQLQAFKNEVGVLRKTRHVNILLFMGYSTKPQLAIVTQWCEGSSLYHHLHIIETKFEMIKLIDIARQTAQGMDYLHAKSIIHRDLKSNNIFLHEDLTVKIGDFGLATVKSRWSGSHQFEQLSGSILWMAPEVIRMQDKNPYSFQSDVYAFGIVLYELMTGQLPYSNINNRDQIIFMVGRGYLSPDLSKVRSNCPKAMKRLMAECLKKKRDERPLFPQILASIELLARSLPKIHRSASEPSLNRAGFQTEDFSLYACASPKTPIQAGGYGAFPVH
Chain of Mitogen-activated protein kinase kinase kinase 8 (P41279 whole entry): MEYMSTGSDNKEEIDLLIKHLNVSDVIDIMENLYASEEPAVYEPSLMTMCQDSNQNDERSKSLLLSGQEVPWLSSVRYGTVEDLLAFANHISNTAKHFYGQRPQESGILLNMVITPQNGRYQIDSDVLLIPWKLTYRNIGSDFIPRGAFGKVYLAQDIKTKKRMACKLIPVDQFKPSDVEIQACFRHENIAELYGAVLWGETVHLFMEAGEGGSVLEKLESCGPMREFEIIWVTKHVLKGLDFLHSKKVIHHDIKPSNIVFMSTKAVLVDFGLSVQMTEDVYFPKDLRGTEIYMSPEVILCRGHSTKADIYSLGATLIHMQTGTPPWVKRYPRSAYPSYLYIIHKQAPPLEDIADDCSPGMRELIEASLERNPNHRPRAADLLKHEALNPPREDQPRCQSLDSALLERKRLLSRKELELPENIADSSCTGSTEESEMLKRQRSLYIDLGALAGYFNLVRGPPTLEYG
Chain of Vascular endothelial growth factor receptor 2 (P35968 whole entry): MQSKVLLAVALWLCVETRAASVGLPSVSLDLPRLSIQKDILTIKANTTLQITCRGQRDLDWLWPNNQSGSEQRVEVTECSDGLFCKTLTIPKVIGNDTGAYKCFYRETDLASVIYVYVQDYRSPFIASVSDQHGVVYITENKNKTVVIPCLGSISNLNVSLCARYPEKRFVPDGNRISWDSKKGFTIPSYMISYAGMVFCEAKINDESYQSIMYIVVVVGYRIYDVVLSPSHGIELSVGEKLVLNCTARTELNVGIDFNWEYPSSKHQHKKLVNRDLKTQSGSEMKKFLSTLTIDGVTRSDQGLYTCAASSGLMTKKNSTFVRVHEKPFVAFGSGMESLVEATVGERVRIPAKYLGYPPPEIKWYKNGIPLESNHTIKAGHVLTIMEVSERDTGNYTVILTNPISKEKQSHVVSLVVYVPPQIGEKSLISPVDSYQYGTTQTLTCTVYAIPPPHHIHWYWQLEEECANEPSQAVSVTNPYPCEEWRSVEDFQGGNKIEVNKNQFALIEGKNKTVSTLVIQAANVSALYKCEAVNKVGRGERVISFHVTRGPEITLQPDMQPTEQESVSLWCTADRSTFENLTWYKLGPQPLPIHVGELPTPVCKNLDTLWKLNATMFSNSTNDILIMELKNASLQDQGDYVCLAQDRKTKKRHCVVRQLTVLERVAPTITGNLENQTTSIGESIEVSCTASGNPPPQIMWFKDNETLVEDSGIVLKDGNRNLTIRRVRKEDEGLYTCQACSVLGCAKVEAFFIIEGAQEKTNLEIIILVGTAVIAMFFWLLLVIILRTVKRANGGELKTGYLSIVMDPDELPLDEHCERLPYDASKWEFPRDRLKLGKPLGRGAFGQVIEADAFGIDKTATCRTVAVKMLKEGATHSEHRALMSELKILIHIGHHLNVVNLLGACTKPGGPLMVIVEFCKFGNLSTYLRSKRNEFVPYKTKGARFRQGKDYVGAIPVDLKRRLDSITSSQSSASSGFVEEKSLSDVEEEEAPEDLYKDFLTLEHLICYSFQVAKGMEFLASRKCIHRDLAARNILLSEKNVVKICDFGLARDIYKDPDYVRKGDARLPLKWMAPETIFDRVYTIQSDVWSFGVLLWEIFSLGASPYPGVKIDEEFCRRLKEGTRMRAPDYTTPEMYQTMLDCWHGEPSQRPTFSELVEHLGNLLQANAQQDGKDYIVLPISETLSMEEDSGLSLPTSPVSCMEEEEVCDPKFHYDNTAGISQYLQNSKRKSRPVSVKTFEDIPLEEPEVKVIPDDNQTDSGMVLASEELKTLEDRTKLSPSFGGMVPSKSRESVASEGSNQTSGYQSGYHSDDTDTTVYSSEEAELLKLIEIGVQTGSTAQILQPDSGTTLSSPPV
Chain of Insulin-like growth factor 1 receptor (P08069 31-736 limits assumed): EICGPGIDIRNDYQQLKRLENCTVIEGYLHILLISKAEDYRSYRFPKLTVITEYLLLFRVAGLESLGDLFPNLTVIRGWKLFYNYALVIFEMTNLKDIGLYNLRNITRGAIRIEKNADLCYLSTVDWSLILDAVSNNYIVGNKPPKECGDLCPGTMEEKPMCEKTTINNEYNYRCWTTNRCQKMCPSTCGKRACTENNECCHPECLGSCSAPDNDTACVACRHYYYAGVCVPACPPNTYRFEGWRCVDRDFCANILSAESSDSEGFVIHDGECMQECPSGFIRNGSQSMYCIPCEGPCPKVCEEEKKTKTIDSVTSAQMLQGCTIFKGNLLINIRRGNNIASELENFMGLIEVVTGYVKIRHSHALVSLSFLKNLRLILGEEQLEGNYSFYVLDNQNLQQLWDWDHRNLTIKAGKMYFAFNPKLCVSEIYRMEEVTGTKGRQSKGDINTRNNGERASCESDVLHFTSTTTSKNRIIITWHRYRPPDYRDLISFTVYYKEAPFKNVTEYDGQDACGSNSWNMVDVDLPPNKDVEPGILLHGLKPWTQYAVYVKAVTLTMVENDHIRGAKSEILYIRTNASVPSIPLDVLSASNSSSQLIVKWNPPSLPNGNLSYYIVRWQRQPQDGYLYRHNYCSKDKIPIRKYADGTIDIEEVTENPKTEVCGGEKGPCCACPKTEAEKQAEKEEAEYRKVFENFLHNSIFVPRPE
Chain of Insulin-like growth factor 1 receptor (P08069 741-1367 limits assumed): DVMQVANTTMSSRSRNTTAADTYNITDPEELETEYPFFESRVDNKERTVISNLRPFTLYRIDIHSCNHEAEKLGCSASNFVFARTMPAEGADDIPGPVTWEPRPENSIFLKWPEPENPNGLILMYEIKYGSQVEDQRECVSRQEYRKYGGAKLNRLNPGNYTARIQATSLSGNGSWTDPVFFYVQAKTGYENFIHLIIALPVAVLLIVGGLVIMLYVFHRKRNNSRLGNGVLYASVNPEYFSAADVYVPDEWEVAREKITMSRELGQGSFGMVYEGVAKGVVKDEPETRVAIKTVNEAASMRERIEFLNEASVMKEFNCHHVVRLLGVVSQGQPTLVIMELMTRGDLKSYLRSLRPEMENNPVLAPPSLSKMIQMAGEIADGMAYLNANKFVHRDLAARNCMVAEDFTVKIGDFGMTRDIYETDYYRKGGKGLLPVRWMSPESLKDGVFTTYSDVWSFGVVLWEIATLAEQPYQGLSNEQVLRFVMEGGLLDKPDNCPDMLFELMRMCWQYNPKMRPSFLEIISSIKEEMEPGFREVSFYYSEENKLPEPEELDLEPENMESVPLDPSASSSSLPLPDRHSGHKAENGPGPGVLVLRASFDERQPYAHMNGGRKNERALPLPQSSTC
Chain of Tyrosine-protein kinase BTK (Q06187 whole entry): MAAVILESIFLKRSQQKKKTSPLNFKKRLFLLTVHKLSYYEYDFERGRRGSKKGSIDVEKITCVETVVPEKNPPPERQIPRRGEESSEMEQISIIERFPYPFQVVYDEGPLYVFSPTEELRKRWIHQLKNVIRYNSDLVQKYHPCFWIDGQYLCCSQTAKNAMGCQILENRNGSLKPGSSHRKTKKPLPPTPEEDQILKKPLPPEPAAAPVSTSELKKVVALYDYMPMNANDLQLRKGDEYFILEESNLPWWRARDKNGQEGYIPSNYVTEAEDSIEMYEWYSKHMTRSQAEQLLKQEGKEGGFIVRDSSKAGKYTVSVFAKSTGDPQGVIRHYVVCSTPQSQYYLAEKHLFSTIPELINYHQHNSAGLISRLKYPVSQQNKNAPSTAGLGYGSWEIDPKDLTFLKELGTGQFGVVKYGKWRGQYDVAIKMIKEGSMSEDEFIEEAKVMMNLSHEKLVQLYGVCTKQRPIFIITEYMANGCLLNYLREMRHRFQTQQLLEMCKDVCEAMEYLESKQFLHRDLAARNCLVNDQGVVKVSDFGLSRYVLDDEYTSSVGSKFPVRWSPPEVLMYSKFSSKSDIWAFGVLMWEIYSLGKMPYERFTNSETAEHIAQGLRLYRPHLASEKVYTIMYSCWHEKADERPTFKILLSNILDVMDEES
Chain of RAC-alpha serine/threonine-protein kinase (P31749 whole entry): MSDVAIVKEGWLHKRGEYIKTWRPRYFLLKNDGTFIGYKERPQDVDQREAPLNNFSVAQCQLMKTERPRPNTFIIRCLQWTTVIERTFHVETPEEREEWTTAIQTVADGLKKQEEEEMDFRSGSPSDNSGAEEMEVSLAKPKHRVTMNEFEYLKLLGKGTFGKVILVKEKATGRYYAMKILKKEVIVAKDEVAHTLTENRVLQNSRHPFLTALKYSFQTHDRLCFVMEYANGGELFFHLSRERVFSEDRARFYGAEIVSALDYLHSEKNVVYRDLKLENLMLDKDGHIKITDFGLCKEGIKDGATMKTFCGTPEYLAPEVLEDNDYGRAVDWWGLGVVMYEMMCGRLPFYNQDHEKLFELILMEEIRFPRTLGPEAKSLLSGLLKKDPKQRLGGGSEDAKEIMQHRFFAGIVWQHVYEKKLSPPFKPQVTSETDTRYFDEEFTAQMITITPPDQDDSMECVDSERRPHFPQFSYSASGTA

As for `O=C(Nc1cccc(-c2ccnc3c(C(=O)NCCN4CCOCC4)cnn23)c1)Nc1ccc(Cl)c(C(F)(F)F)c1`, the IC50 (in general, the concentration needed to halve the response being measured) in [1] came to 0.16 µM. Same read-out and setting: the same measure for `CCOC(=O)c1cnn2c(-c3cccc(NC(=O)c4cccc(OC(F)(F)F)c4)c3)ccnc12`: 1.57 µM; for `CCOC(=O)c1cnn2c(-c3cccc(NC(=O)c4ccc(OC)c(C(F)(F)F)c4)c3)ccnc12`: 1.03 µM; for `O=C(Nc1cccc(-c2ccnc3c(C(=O)NCCN4CCOCC4)cnn23)c1)c1cccc(C(F)(F)F)c1`: 6.34 µM. With `CCOC(=O)c1cnn2c(-c3cccc(NC(=O)c4cccc(C#N)c4)c3)ccnc12`, the IC50 in test [1] is > 10 µM. Consider `CCOC(=O)c1cnn2c(-c3cccc(NC(=O)Nc4ccc(C)c(C(F)(F)F)c4)c3)ccnc12`, for which the IC50 in [1] came out at 0.36 µM. As to `COCCCNC(=O)c1cnn2c(-c3cccc(NC(=O)Nc4ccc(Cl)c(C(F)(F)F)c4)c3)ccnc12`, the IC50 in test [1] is 0.27 µM. Consider `CCOC(=O)c1cnn2c(-c3cccc(NC(=O)c4ccccc4)c3)ccnc12`, for which the IC50 in test [1] is > 10 µM. On the same count and under the same terms, then `CCOC(=O)c1cnn2c(-c3cccc(NC(=O)Nc4cccc(C(F)(F)F)c4)c3)ccnc12`, with 0.54 µM; and `CCOC(=O)c1cnn2c(-c3cccc(NC(=O)Nc4cc(C(F)(F)F)ccc4Cl)c3)ccnc12`, with > 10 µM.

`CCOC(=O)c1cnn2c(-c3cccc(NC(=O)Nc4cccc(Cl)c4)c3)ccnc12`: in test [1], the IC50 is > 10 µM. As for `CCOC(=O)c1cnn2c(-c3cccc(NC(=O)Nc4ccc(F)c(C(F)(F)F)c4)c3)ccnc12`, in test [1], the half-inhibitory concentration (IC50) was found to be 0.24 µM.

Regarding `CCN(CC)CCNC(=O)c1cnn2c(-c3cccc(NC(=O)Nc4ccc(Cl)c(C(F)(F)F)c4)c3)ccnc12`, the IC50 in [1] was 0.17 µM. Take `CCOC(=O)c1cnn2c(-c3cccc(NC(=O)Nc4ccc(C(F)(F)F)cc4)c3)ccnc12`: the IC50 in [1] is 3.6 µM.

As for `CCOC(=O)c1cnn2c(-c3cccc(NC(=O)c4cc(C(F)(F)F)ccc4C)c3)ccnc12`, the half-inhibitory concentration (IC50) in test [1] was > 10 µM. Take `CCOC(=O)c1cnn2c(-c3cccc(NC(=O)c4ccc(Cl)c(C(F)(F)F)c4)c3)ccnc12`: the IC50 in test [1] stood at 4.27 µM.

Regarding `CCOC(=O)c1cnn2c(-c3cccc(NC(=O)Nc4ccc(Cl)c(C(F)(F)F)c4)c3)ccnc12`, the IC50 in test [1] turned out to be 0.36 µM.

As to `O=C(Nc1cccc(-c2ccnc3c(C(=O)OCC(F)(F)F)cnn23)c1)c1cccc(C(F)(F)F)c1`, in [1], the IC50 came out at 1.45 µM.

Consider `CCOC(=O)c1cnn2c(-c3cccc(NC(=O)c4cccc(C(F)(F)F)c4)c3)ccnc12`, for which the IC50 in test [2] was > 10 µM; in [3], > 10 µM; in test [4], > 10 µM; in test [5] it was 7 µM; in test [6], > 10 µM; in test [7], 3.87 µM. The IC50 was > 10 µM in test [8]; > 10 µM in [9]; > 10 µM in test [10]; 1.54 µM in test [1]; 3.25 µM in test [11]; 8.3 µM in [12]. In addition, the IC50 was > 10 µM in test [13]; > 10 µM in test [14]; 3.8 µM in test [15]; > 10 µM in [16]; 6.6 µM in test [17]; > 10 µM in [18]. In test [19], this molecule yielded an IC50 of 6.2 µM.

Values taken from ChEMBL document CHEMBL1151868, “Identification of pyrazolo[1,5-a]pyrimidine-3-carboxylates as B-Raf kinase inhibitors” (Bioorg Med Chem Lett, 2009).
